COC(=O)c1ccccc1S(N)(=O)=O
Details | solubility (mole fraction)
in 2-butanone, 273.15 K | 0.028
in 2-butanone, 278.15 K | 0.0329
in 2-butanone, 283.15 K | 0.0385
in 2-butanone, 287.95 K | 0.0446
in 2-butanone, 293.85 K | 0.0529
in 2-butanone, 298.75 K | 0.0609
in 2-butanone, 303.45 K | 0.0691
in 2-butanone, 308.15 K | 0.0784
in 2-butanone, 313.85 K | 0.0907
in 2-butanone, 318.65 K | 0.102
in 2-butanone, 324.15 K | 0.117
in 2-pentanone, 273.15 K | 0.0185
in 2-pentanone, 278.15 K | 0.0218
in 2-pentanone, 283.15 K | 0.0256
in 2-pentanone, 287.95 K | 0.0298
in 2-pentanone, 293.85 K | 0.0355
in 2-pentanone, 298.75 K | 0.0409
in 2-pentanone, 303.45 K | 0.0466
in 2-pentanone, 308.15 K | 0.053
in 2-pentanone, 313.85 K | 0.0617
in 2-pentanone, 318.65 K | 0.0695
in 2-pentanone, 324.15 K | 0.0797
in acetone, 273.15 K | 0.0414
in acetone, 278.15 K | 0.0483
in acetone, 283.15 K | 0.0561
in acetone, 287.95 K | 0.0643
in acetone, 293.85 K | 0.0757
in acetone, 298.75 K | 0.0863
in acetone, 303.45 K | 0.0976
in acetone, 308.15 K | 0.11
in acetone, 313.85 K | 0.126
in acetone, 318.65 K | 0.141
in acetone, 324.15 K | 0.16
in acetonitrile, 273.15 K | 0.0188
in acetonitrile, 278.15 K | 0.0231
in acetonitrile, 283.15 K | 0.0282
in acetonitrile, 287.95 K | 0.0339
in acetonitrile, 293.85 K | 0.0423
in acetonitrile, 298.75 K | 0.0504
in acetonitrile, 303.45 K | 0.0594
in acetonitrile, 308.15 K | 0.0695
in acetonitrile, 313.85 K | 0.0835
in acetonitrile, 318.65 K | 0.0975
in acetonitrile, 324.15 K | 0.115
in cyclopentanone, 273.15 K | 0.0537
in cyclopentanone, 278.15 K | 0.0616
in cyclopentanone, 283.15 K | 0.0704
in cyclopentanone, 287.95 K | 0.0795
in cyclopentanone, 293.85 K | 0.092
in cyclopentanone, 298.75 K | 0.103
in cyclopentanone, 303.45 K | 0.115
in cyclopentanone, 308.15 K | 0.128
in cyclopentanone, 313.85 K | 0.145
in cyclopentanone, 318.65 K | 0.16
in cyclopentanone, 324.15 K | 0.179
in ethanol, 272.15 K | 0.00172
in ethanol, 278.75 K | 0.00252
in ethanol, 283.15 K | 0.00322
in ethanol, 288.15 K | 0.0042
in ethanol, 293.05 K | 0.0054
in ethanol, 298.05 K | 0.00692
in ethanol, 303.15 K | 0.00887
in ethanol, 308.05 K | 0.0112
in ethanol, 312.15 K | 0.0134
in ethanol, 318.15 K | 0.0175
in ethanol, 324.15 K | 0.0226
in ethyl acetate, 273.15 K | 0.0112
in ethyl acetate, 278.15 K | 0.0135
in ethyl acetate, 283.15 K | 0.0162
in ethyl acetate, 287.95 K | 0.0192
in ethyl acetate, 293.85 K | 0.0236
in ethyl acetate, 298.75 K | 0.0278
in ethyl acetate, 303.45 K | 0.0323
in ethyl acetate, 308.15 K | 0.0373
in ethyl acetate, 313.85 K | 0.0444
in ethyl acetate, 318.65 K | 0.0509
in ethyl acetate, 324.15 K | 0.0596
in ethyl formate, 273.15 K | 0.00969
in ethyl formate, 278.15 K | 0.0119
in ethyl formate, 283.15 K | 0.0145
in ethyl formate, 287.95 K | 0.0174
in ethyl formate, 293.85 K | 0.0215
in ethyl formate, 298.75 K | 0.0256
in ethyl formate, 303.45 K | 0.03
in ethyl formate, 308.15 K | 0.0351
in ethyl formate, 313.85 K | 0.0421
in ethyl formate, 318.65 K | 0.049
in ethyl formate, 324.15 K | 0.0578
in isobutanol, 272.15 K | 0.000673
in isobutanol, 278.75 K | 0.001
in isobutanol, 283.15 K | 0.00129
in isobutanol, 288.15 K | 0.00171
in isobutanol, 293.05 K | 0.00224
in isobutanol, 298.05 K | 0.00291
in isobutanol, 303.15 K | 0.00378
in isobutanol, 308.05 K | 0.00479
in isobutanol, 312.15 K | 0.00586
in isobutanol, 318.15 K | 0.00775
in isobutanol, 324.15 K | 0.0101
in isopentanol, 272.15 K | 0.000712
in isopentanol, 278.75 K | 0.00105
in isopentanol, 283.15 K | 0.00135
in isopentanol, 288.15 K | 0.00177
in isopentanol, 293.05 K | 0.00229
in isopentanol, 298.05 K | 0.00296
in isopentanol, 303.15 K | 0.00381
in isopentanol, 308.05 K | 0.00483
in isopentanol, 312.15 K | 0.00586
in isopentanol, 318.15 K | 0.00764
in isopentanol, 324.15 K | 0.00989
in isopropanol, 272.15 K | 0.000871
in isopropanol, 278.75 K | 0.00134
in isopropanol, 283.15 K | 0.00176
in isopropanol, 288.15 K | 0.00239
in isopropanol, 293.05 K | 0.00317
in isopropanol, 298.05 K | 0.00422
in isopropanol, 303.15 K | 0.00557
in isopropanol, 308.05 K | 0.00726
in isopropanol, 312.15 K | 0.00894
in isopropanol, 318.15 K | 0.0121
in isopropanol, 324.15 K | 0.0161
in methanol, 272.15 K | 0.00311
in methanol, 278.75 K | 0.00462
in methanol, 283.15 K | 0.00595
in methanol, 288.15 K | 0.00788
in methanol, 293.05 K | 0.0102
in methanol, 298.05 K | 0.0133
in methanol, 303.15 K | 0.0171
in methanol, 308.05 K | 0.0217
in methanol, 312.15 K | 0.0264
in methanol, 318.15 K | 0.0348
in methanol, 324.15 K | 0.0454
in methyl acetate, 273.15 K | 0.0162
in methyl acetate, 278.15 K | 0.0196
in methyl acetate, 283.15 K | 0.0235
in methyl acetate, 287.95 K | 0.0279
in methyl acetate, 293.85 K | 0.0341
in methyl acetate, 298.75 K | 0.04
in methyl acetate, 303.45 K | 0.0465
in methyl acetate, 308.15 K | 0.0537
in methyl acetate, 313.85 K | 0.0637
in methyl acetate, 318.65 K | 0.0731
in methyl acetate, 324.15 K | 0.0851
in n-butanol, 272.15 K | 0.00092
in n-butanol, 278.75 K | 0.00137
in n-butanol, 283.15 K | 0.00177
in n-butanol, 288.15 K | 0.00234
in n-butanol, 293.05 K | 0.00307
in n-butanol, 298.05 K | 0.004
in n-butanol, 303.15 K | 0.00518
in n-butanol, 308.05 K | 0.00659
in n-butanol, 312.15 K | 0.00801
in n-butanol, 318.15 K | 0.0106
in n-butanol, 324.15 K | 0.0139
in n-pentanol, 272.15 K | 0.000797
in n-pentanol, 278.75 K | 0.00118
in n-pentanol, 283.15 K | 0.0015
in n-pentanol, 288.15 K | 0.00197
in n-pentanol, 293.05 K | 0.00255
in n-pentanol, 298.05 K | 0.0033
in n-pentanol, 303.15 K | 0.00424
in n-pentanol, 308.05 K | 0.00534
in n-pentanol, 312.15 K | 0.0065
in n-pentanol, 318.15 K | 0.00849
in n-pentanol, 324.15 K | 0.011
in n-propanol, 272.15 K | 0.00106
in n-propanol, 278.75 K | 0.00159
in n-propanol, 283.15 K | 0.00206
in n-propanol, 288.15 K | 0.00274
in n-propanol, 293.05 K | 0.00357
in n-propanol, 298.05 K | 0.00469
in n-propanol, 303.15 K | 0.00609
in n-propanol, 308.05 K | 0.00778
in n-propanol, 312.15 K | 0.00946
in n-propanol, 318.15 K | 0.0125
in n-propanol, 324.15 K | 0.0164

From BigSolDB 2.1
